Measurements as given in patent US20120322715A1, “SERINE HYDROLASE FORMULATION” (NOVOZYMES A/S, priority 2010, published 2012).

System: Lipoclean lipase
Assay: Storage stability of liquid Lipoclean lipase formulation: residual lipase activity (PNP-Palmitate hydrolysis, 405 nm) versus frozen reference
Format: biochemical
Settings: 2% enzyme protein, sorbitol and glycerol, 0.08% Z-GAY-H, compared with frozen reference sample
Procedure: Lipoclean formulations, per se (LCLU/g) residual activities: The Lipase was formulated from crude concentrate with standard formulation ingredients (sorbitol and glycerol) with and without the serine protease inhibitor (2% enzyme protein, 0.08% Z-GAY-H added with a 1% DMSO solution). The solution was split into separate vials which were incubated at different temperature and times and compared in activity with a frozen reference sample frozen directly after mixing. The lipase activity was measured by ester bond hydrolysis in the substrate PNP-Palmitate (C:16) and releases PNP which is yellow and can be detected at 405 nm.

With “Z-GAY-H [0.08% serine protease inhibitor]” the “residual activities (lipase)” value (2 weeks, 50° C.) was 71%, the “residual activities (lipase)” value (4 weeks, 40° C.) was 70% and the “residual activities (lipase)” value (4 weeks, 50° C.) was 56%.
